# Laboratory results as given in publication PMC11659602, “Discovering covalent cyclic peptide inhibitors of peptidyl arginine deiminase 4 (PADI4) using mRNA-display with a genetically encoded electrophilic warhead” (Communications Chemistry, 2024).
# Several values for one entry are separate records, joined by “and”; a condition that tells them apart may be missing. Identical values can stand only once. Like-named read-outs stand apart in the source and are kept apart here. Where a SMILES comes first, the peptide text is derived from it. Bridges are numbered along the chain shown (N, C = ends). [ ]: non-standard residue; d: D form. Orn(fluoroacetimidoyl) = N=C(CF)NCCC[C@H](N)C(=O)O
# Legend:
# [1] = target: T1, PADI4 (Homo sapiens, UniProt Q9UM07); assay: COLDER inhibition assay, BAEE substrate, with or without 1 h preincubation; assay type: biochemical; conditions: for IC50: COLDER; for remaining activity at 0.003 µM: peptide 0.003 µM; for remaining activity at 0.01 µM: peptide 0.01 µM; for remaining activity at 0.03 µM: peptide 0.03 µM; for remaining activity at 0.1 µM: peptide 0.1 µM; for remaining activity at 0.3 µM: peptide 0.3 µM; for remaining activity at 1 µM: peptide 1 µM
# T1 construct: His6; made in house
# Protocol: (§1) PADI4 citrullination activity was analysed using the COLDER assay in 96-well plates. Peptide dilutions were prepared from a 500 µM stock, to give a 10 times concentrated dilution series (500 µM, 300 µM, 100 µM, 30 µM, 10 µM, 3 µM, 1 µM, 0.3 µM, 0.1 µM and 0.03 µM) in COLDER buffer (50 mM HEPES, 150 mM NaCl and 2 mM DTT, pH 7.5) containing 1% DMSO. In triplicate, each was diluted 10-fold further when mixed with 50 nM His-PADI4, 0.6 mg/mL BSA and 10 mM CaCl2, in COLDER buffer. With or without one hour of incubation, 10 mM N^α-Benzoyl-L-arginine ethyl ester hydrochloride (BAEE, Merck) was added to initiate the reaction (50 µL final volume). After 30 min at rt, EDTA (50 mM final concentration) was used to quench the reaction and 200 µL of COLDER solution containing 20 mM Diacetyl monoxime/2,3-butanedione monoxime (Merck), 0.5 mM Thiosemicarbazide (Acros Organics), 2.25 M H3PO4, 4.5 M H2SO4 and 1.5 mM NH4Fe(SO4)2.12H2O was added to each well. Samples were incubated for 20 min at 95 °C before measuring absorbance at 540 nm on a CLARIOstar Plus (BMG LABTECH). Data analysis was performed with GraphPad Prism. Data are presented as the average ± standard error of the mean from at least two independent replicates.
# [2] = target: T1, PADI4; assay: Incubation time-dependent COLDER assay IC50(t), Krippendorff fit; assay type: biochemical; conditions: for IC50: replicates, read-out: apparent IC50; for Ki / kinact: Krippendorff fit of IC50 vs time
# Protocol: To determine KI and kinact of covalent peptide inhibitors, COLDER assays were used[52]. Peptide dilutions were prepared using 5-fold dilutions from 500 µM and 300 µM to 0.8 µM and 2.4 µM, respectively, at 1% DMSO in COLDER buffer (50 mM HEPES, 150 mM NaCl and 2 mM DTT, pH 7.5). The 9 peptide dilutions were added to a 96-well plate, alongside a 1% DMSO control. An equal volume of 10 mM BAEE was added to each well and the solution was homogenised by pipette mixing. This was mixed with 50 nM His-PADI4, 0.6 mg/mL BSA and 10 mM CaCl2, in COLDER buffer, to bring the final volume to 300 µL in each well. Alternatively, His-PAD1 (100 nM) /His-PADI2 (100 nM) /His-PADI3 (250 nM) were used. For assays with PADI1 and PADI3, 10 mM N^α-benzoyl-L-arginine methyl […] (BAME) was used as the substrate instead of BAEE[48],[58],[59]. At 15-minute intervals, for 5 timepoints, 50 µL of solution was taken from each well and quenched with 10 µL EDTA (300 mM). 200 µL of COLDER solution containing 20 mM diacetyl monoxime/2,3-butanedione monoxime (Merck), 0.5 mM thiosemicarbazide (Acros Organics), 2.25 M H3PO4, 4.5 M H2SO4 and 1.5 mM NH4Fe(SO4)2.12H2O was added to each well. Samples were incubated for 20 min at 95 °C before measuring absorbance at 540 nm on a CLARIOstar Plus (BMG LABTECH). IC50 values for each time point were determined using non-linear regression with GraphPad Prism. Incubation time–dependent potency IC50(t) against incubation time was fitted to the Krippendorff equation (below) to determine KI and kinact using a Python script[53],[59]. […] IC50t=KI1+S/KM⋅2−2e^−ηIC50⋅kinact⋅t/ηIC50⋅kinact⋅t−1 WhereηIC50=IC50t/KI1+S/KM+IC50t
# [3] = target: T1, PADI4; assay: Surface plasmon resonance (SPR), single cycle kinetics; assay type: binding; conditions: for Ki: k-1/k+1
# Protocol: S8. Surface plasmon resonance (SPR)
# Using a Biacore S200 (GE Healthcare), biotinylated His-PADI4 (80 nM) was immobilised on a CAP chip (GE Healthcare) to a response unit of approx. 3000. At 25 °C, single cycle kinetics mode was used with 5 samples of a 3-fold dilution series of peptides PADI4_3_H4(2), cP4_2, […]
# mM HEPES, 150 mM NaCl, 10 mM CaCl2, 0.05% Tween-20, 0.1% DMSO (pH 7.5). After each cycle, regeneration of the chip was carried out as per the manufacturer’s protocol. Data were analysed with the Biacore S200 Evaluation Software, each in triplicate. Warhead-containing peptides were analysed using the two-state reaction model, with the rate constant for the reverse second step (k-2) set to zero. The equilibrium constant of the reversible binding step, Ki, was calculated as the ratio of k-1/k+1 and the rate constant of the irreversible chemical step, kinact, as k+2. The Arg4, Cit4 and Me4 peptides were fitted using a 1:1 binding model. […]
# [4] = test system: PADIs 1-4; assay: COLDER citrullination activity of purified PADIs 1-4 and PADI4 C645A (no inhibitor); assay type: biochemical, human; set-up: key to Citrullination activity of PADI4 WT / C645A (Figure S4c): absorbance at 540 nm (colorimetric citrulline readout); conditions: for Citrullination activity of PADI4 WT / C645A (Figure S4c): no inhibitor; for Absorbance at 540 nm: purified PADI enzyme, no inhibitor (Figure S10)
# Protocol: as §1
# [5] = 1 h preincubation of peptide and PADI4, 10 mM CaCl2, read-out: IC50 Values 1 h preincubation
# [6] = no preincubation of peptide and PADI4, 10 mM CaCl2, read-out: IC50 Values 0 h preincubation
# [7] = T=0, values starred, read-out: PADI4 activity normalised to 0.1% DMSO
# [8] = T=1, read-out: PADI4 activity normalised to 0.1% DMSO
# [9] = T=0, read-out: PADI4 activity normalised to 0.1% DMSO
# [10] = each replicate, read-out: k2 / kinact
# [11] = two-state reaction model, k+2, read-out: SPR kinact (converted)
# T1 sequence (Q9UM07 whole entry): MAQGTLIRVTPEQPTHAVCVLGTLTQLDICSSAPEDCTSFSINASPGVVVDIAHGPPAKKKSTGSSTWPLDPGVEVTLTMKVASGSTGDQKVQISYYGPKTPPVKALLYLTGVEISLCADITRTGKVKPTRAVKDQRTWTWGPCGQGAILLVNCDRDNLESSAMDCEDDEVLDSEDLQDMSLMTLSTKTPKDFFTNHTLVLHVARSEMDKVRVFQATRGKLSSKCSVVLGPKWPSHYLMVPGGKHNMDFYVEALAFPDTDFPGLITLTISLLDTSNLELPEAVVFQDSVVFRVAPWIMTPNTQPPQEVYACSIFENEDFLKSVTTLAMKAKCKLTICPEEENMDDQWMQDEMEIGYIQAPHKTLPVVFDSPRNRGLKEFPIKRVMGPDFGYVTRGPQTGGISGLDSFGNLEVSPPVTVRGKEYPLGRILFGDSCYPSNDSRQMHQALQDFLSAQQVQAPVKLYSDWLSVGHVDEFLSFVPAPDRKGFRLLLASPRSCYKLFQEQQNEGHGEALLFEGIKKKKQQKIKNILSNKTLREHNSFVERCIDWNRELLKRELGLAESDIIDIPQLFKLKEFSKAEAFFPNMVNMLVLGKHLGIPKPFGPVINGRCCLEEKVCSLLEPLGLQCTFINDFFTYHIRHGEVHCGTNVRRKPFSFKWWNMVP
"IC50 [1, 5]","IC50 [1, 6]","remaining activity at 0.003 µM [1, 7]","remaining activity at 0.003 µM [1, 8]","remaining activity at 0.01 µM [1, 7]","remaining activity at 0.01 µM [1, 8]","remaining activity at 0.03 µM [1, 9]","remaining activity at 0.1 µM [1, 9]","remaining activity at 0.3 µM [1, 9]","remaining activity at 1 µM [1, 9]",kinact/KI [2],IC50 ([2]; 15 mins),IC50 ([2]; 30 mins),IC50 ([2]; 45 mins),IC50 ([2]; 60 mins),IC50 ([2]; 75 mins),Ki [2],kinact [2],kinact/KI [3],"kinact [3, 10]",Compound,also measured
0.093 ± 0.002 µM,3.1 ± 0.01 µM,93.1%,98.1%,92%,81.1%,91.3%,90.6%,91.5%,75.7%,1450 M⁻¹ s⁻¹,7.24 µM and 6.94 µM and 5.53 µM,3.82 µM and 3.29 µM and 3.6 µM,2.72 µM and 2.38 µM and 2.64 µM,2.15 µM and 2.09 µM and 2.33 µM,1.96 µM and 1.81 µM and 2.18 µM,1.5 ± 0.3 µM,0.00217 s⁻¹,33400 M⁻¹ s⁻¹,0.0041 s⁻¹,"N=C(N)NCCC[C@@H]1NC(=O)[C@H](CCCCN)NC(=O)[C@H](CC(N)=O)NC(=O)[C@H](Cc2ccccc2)NC(=O)[C@H](CC(=O)O)NC(=O)[C@H](Cc2c[nH]c3ccccc23)NC(=O)[C@H](CC(N)=O)NC(=O)[C@H](CCCNC(=N)CF)NC(=O)[C@H](Cc2ccc(O)cc2)NC(=O)[C@H](Cc2c[nH]c3ccccc23)NC(=O)[C@@H](Cc2ccc(O)cc2)NC(=O)CSC[C@@H](C(=O)NCC(N)=O)NC1=O [cP4_10, yWY(2)NWDFNKRCG] ({CH2CO}-[dY]WY[Orn(fluoroacetimidoyl)]NWDFNKRCG-NH2; thioether N-12)","remaining activity at 0.03 µM [1, 8]: 82.2%; remaining activity at 3 µM ([1]; peptide 3 µM, T=0, read-out: PADI4 activity normalised to 0.1% DMSO): 48.4%; remaining activity at 10 µM ([1]; peptide 10 µM, T=0, read-out: PADI4 activity normalised to 0.1% DMSO): 19.7%; k2 / kinact ([3]; each replicate): 0.0034 s⁻¹; kinact [3, 11]: 0.00383 s⁻¹; Ki ([3]; two-state reaction model): 0.12 ± 0.1 µM"
0.17 ± 0.01 µM,11.8 ± 4.9 µM,97.2%,95%,94.1%,89%,97.8%,99.6%,99.2%,97%,283 M⁻¹ s⁻¹,51.7 µM and 33.8 µM and 43.9 µM,22.5 µM and 16.4 µM and 14.6 µM,13.7 µM (2×) and 11.2 µM,11.9 µM and 10 µM and 8.76 µM,9.43 µM and 9.54 µM and 8.45 µM,8.9 ± 1.1 µM,0.00267 s⁻¹,1780 M⁻¹ s⁻¹,0.0013 s⁻¹,"CC[C@H](C)[C@H](NC(=O)[C@H](Cc1c[nH]c2ccccc12)NC(=O)[C@H](CCC(=O)O)NC(=O)[C@@H]1CSCC(=O)N[C@H](Cc2ccc(O)cc2)C(=O)N[C@@H](C(C)C)C(=O)N[C@@H](Cc2ccc(O)cc2)C(=O)N[C@@H](CCCNC(=N)CF)C(=O)N[C@@H](CC(=O)O)C(=O)N1)C(=O)N[C@@H](CC(N)=O)C(=O)N[C@@H](CCCNC(=N)N)C(=O)N[C@@H](C)C(=O)NCC(N)=O [cP4_165, yVY(2)DCEWINRAG] ({CH2CO}-[dY]VY[Orn(fluoroacetimidoyl)]DCEWINRAG-NH2; thioether N-6)","remaining activity at 0.3 µM [1, 8]: 24.1%; kinact [3, 11]: 0.0011 s⁻¹; Ki ([3]; two-state reaction model): 0.62 ± 0.06 µM"
–,–,–,–,–,–,–,–,–,–,–,–,–,–,–,–,–,–,–,–,C645A,Citrullination activity of PADI4 WT / C645A (Figure S4c) ([4]; +EDTA): 0.268 and 0.278 and 0.279 and 0.186 and 0.254 and 0.214; Citrullination activity of PADI4 WT / C645A (Figure S4c) ([4]; -EDTA): 0.211 and 0.22 and 0.222 and 0.281 and 0.285 and 0.262
–,–,–,–,–,–,–,–,–,–,–,–,–,–,–,–,–,–,–,–,PADI2,Absorbance at 540 nm [4]: 0.974 and 1.004 and 1.007 and 0.7767 and 0.7637 and 0.7657
–,–,–,–,–,–,–,–,–,–,–,–,–,–,–,–,–,–,–,–,PADI4,Absorbance at 540 nm [4]: 1.538 and 1.537 and 1.638 and 1.921 and 1.811 and 1.856
–,–,–,–,–,–,–,–,–,–,–,–,–,–,–,–,–,–,–,–,WT,Citrullination activity of PADI4 WT / C645A (Figure S4c) ([4]; +EDTA): 0.259 and 0.261 and 0.247 and 0.193 and 0.23 and 0.231; Citrullination activity of PADI4 WT / C645A (Figure S4c) ([4]; -EDTA): 1.114 and 1.151 and 1.275 and 1.3 and 1.248
